One series concerns Raji-GFP cells. Nature of the series: Raji-GFP coculture with CD19 CAR-T cells (flow cytometry). Format: cell-based, human. Conditions: 2 nM, E:T 1:5, seven days.
Series [1] relates to HLA-A2+PRAME+ U2OS osteosarcoma. Nature of the series: iMC-PRAME TCR cytotoxicity and IL-2 secretion against U2OS. Format: cell-based. An excerpt: The Go156 TCR is a negative control TCR.
Series [2] has as its system luciferase-expressing U266 myeloma cells. As to the kind of experiment: NSG mice engrafted with U266 myeloma cells, iMC-PRAME TCR T cells with rimiducid. Format: in vivo, mouse. As for the experimental part: FIG. 121: (A) NSG mice were engrafted with 1×10^6 luciferase-expressing U266 myeloma cells and treated with […] non-transduced, PRAME TCR- or iMC-PRAME TCR-transduced T cells on day 13. […] (B) Tumor growth was measured by bioluminescence imaging.

In series [3] the target is iRmC9 (pBP1327 & pBP1328) (Homo sapiens, UniProt P42345+P62942, F37V). Nature of the series: SRα-SEAP assay of drug specificity, iRmC9 switch, 293 cells. To be noted: SRα-SEAP reporter.
Series [4] has as its system iCasp9M-transduced EBV-CTLs. As to the kind of experiment: CID-induced apoptosis / loss of GFP+ cells in iCasp9M-transduced EBV-CTLs. Format: cell-based, human. The procedure:
CID (AP20187; ARIAD Pharmaceuticals) at indicated concentrations was added to transfected 293T cells or transduced CTLs. Adherent and nonadherent cells were harvested and washed with annexin binding buffer (BD Pharmingen, San Jose, Calif.). Cells were stained with annexin-V and 7-amino-actinomycin D (7-AAD) for 15 minutes according to the manufacturer's instructions (BD Pharmingen). Within 1 hour after staining, cells were analyzed by flow cytometry using CellQuest software (Becton Dickinson).
Inducible iCasp9M proficiency in CTLs was tested by monitoring loss of GFP-expressing cells after administration of CID; 91.3% (range, 89.5%-92.6% in 5 different donors) of GFP^+ cells were eliminated after a single 10-nM dose of CID. […] In all experiments, CTLs that survived CID treatment had low transgene expression with a 70% (range, 55%-82%) reduction in mean fluorescence intensity of GFP after CID. No further elimination of the surviving GFP^+ T cells could be obtained by an antigenic stimulation followed by a second 10-nM dose of CID. Therefore, the non-responding CTLs most likely expressed insufficient iCasp9M for functional activation by CID. To investigate the correlation between low levels of expression and CTL non-response to CID, CTLs were sorted for low, intermediate, and high expression of the linked marker gene GFP and mixed 1:1 with nontransduced CTLs from the same donor to allow for an accurate quantitation of the number of transduced T cells responding to CID-induced apoptosis.
The number of transduced T cells eliminated increased with the level of GFP transgene expression (see FIGS. 4A, 4B and 4C). To determine the correlation between transgene expression and function of iCasp9M, iCasp9M IRES.GFP-transduced EBV-CTL were selected for low (mean 21), intermediate (mean 80) and high (mean 189) GFP expression. Selected T-cells were incubated overnight with 10 nM CID and subsequently stained with annexin V and 7-AAD. Indicated are the percentages of annexin V+/7-AAD− and annexin V+/7-AAD+ T−. Selected T-cells were mixed 1:1 with non-transduced T-cells and incubated with 10 nM CID following antigenic stimulation. Indicated is the percentage of residual GFP-positive T-cells on day 7.
For GFPhigh-selected cells, 10 nM CID led to deletion of 99.1% (range, 98.7%-99.4%) of transduced cells. On the day of antigen stimulation, F-Casp9M.I.GFP-transduced CTLs were either untreated or treated with 10 nM CID. Seven days later, the response to CID was measured by flow cytometry for GFP. The percentage of transduced T cells was adjusted to 50% to allow for an accurate measurement of residual GFP^+ cells after CID treatment. The responses to CID in unselected (top row of and GFPhigh-selected CTLs (bottom row of was compared. The percentage of residual GFP^+ cells is indicated.
After overnight incubation with 10 nM CID, F-Casp9M.I.GFPhigh-transduced T cells had apoptotic characteristics such as cell shrinkage and fragmentation by microscopic evaluation. […] A representative example of 3 separate experiments is shown.

The subject of series [5] is iCasp9M.IRES.IL-12-transduced EBV-CTLs. As to the kind of experiment: IL-12 ELISA of iCasp9M.I.IL-12-transduced EBV-CTL supernatant. Format: cell-based, human. To be noted: 10 nM CID; detection limit 7.8 pg/mL. The procedure:
The concentration of interferon-[…] (IFN-[…]), IL-2, IL-4, IL-5, IL-10, and tumor necrosis factor-[…] (TNF[…]) in CTL culture supernatants was measured using the Human Th1/Th2 cytokine cytometric Bead Array (BD Pharmingen) and the concentration of IL-12 in the culture supernatants was measured by enzyme-linked immunosorbent assay (ELISA; R&D Systems, Minneapolis, Minn.) according to the instructions of the manufacturer.
To determine whether iCasp9M could effectively destroy cells genetically modified to express an active transgene product, the ability of iCasp9M to eliminate EBV-CTLs stably expressing IL-12 was measured. While IL-12 was undetectable in the supernatant of nontransduced and iCasp9M.IRES.GFP-transduced CTLs, the supernatant of iCasp9M.IRES.IL-12-transduced cells contained 324 pg/mL to 762 pg/mL IL-12. After administration of 10 nM CID, however, the IL-12 in the supernatant fell to undetectable levels (<7.8 pg/mL). Thus, even without prior sorting for high transgene expressing cells, activation of iCasp9M is sufficient to completely eliminate all T cells producing biologically relevant levels of IL-12. […] Three days after a second antigenic stimulation, the levels of IL-12 in the culture supernatant were measured by IL-12 ELISA (detection limit of this assay is 7.8 pg/mL). […]
On the technique in general: ELISA stands for enzyme-linked immunosorbent assay.

Setting [6] is: GFPhigh-selected, overnight 10 nM CID, mean.
Setting [7] is: representative example of 3 experiments.

Chain of iRmC9 (pBP1327 & pBP1328) (P42345 2025-2113): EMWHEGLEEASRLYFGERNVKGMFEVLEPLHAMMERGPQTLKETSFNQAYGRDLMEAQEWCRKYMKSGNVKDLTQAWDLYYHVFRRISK
Chain of iRmC9 (pBP1327 & pBP1328) (P62942 2-107 F37V): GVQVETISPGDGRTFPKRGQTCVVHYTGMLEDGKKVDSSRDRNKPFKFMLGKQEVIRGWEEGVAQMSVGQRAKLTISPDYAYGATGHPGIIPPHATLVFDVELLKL
Chain of iRmC9 (pBP1327 & pBP1328) (P55211 135-416 partner limits assumed): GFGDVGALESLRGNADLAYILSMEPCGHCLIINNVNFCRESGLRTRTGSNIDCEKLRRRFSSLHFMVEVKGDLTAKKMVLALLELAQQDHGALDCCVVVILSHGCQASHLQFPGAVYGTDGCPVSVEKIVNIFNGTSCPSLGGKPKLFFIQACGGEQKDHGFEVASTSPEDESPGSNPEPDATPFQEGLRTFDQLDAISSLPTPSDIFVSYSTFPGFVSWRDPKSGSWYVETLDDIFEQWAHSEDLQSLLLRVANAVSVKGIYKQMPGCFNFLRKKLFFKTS
Description for Raji-GFP cells: After seven days of incubation the live cells were analyzed for the proportion of GFP labeled tumor cells (left) and for the proportion of total T cells (CD3^+, right) and transduced CAR-T cells (CD34, not shown).
Raji cells (ATCC) labeled by stable expression of Green Fluorescent Protein (Raji-GFP) are a Burkitt's lymphoma cell line that express CD19 on the cell surface and are a target for an anti-CD19 CAR. 50000 Raji-GFP cells were seeded on a 24 well plate with 10000 CAR-T cells, a 1:5 E:T ratio. Media supernatant was taken at 48 hours for determination of cytokine release by activated CAR-T cells. The degree of tumor killing was determined at 7 days and 14 days by flow cytometry (Galeos, Beckman-Coulter) by the proportion of GFP labeled tumor cells and CD3 labeled T cells.

On to `CC[C@H](C(=O)N1CCCC[C@H]1C(=O)O[C@H](CCc1ccc(OC)c(OC)c1)c1cccc(OCC(=O)NCCNC(=O)COc2cccc([C@@H](CCc3ccc(OC)c(OC)c3)OC(=O)[C@@H]3CCCCN3C(=O)[C@@H](CC)c3cc(OC)c(OC)c(OC)c3)c2)c1)c1cc(OC)c(OC)c(OC)c1` [rimiducid], for which the “CAR-T cells with i9+CARζ+MC or FRBFwtMC/FvC9” value in the series on Raji-GFP cells is “caused cell death”. In addition, the “iMC-PRAME TCR-mediated cytotoxicity against U2OS” value in series [1] (FIG. 119A) is “rimiducid-independent”. The “IL-2 secretion, PRAME TCR with rimiducid-driven iMC costimulation, U2OS” value in series [1] (FIG. 119B) is reported as “maximal IL-2 secretion”. The “number of Vβ1+CD8+ T cells in spleen” value in series [2] (5 mg/kg rimiducid i.p. weekly day 14 to 38, spleens day 94, FIG. 121C) is “significantly increased”. Also, the “anti-tumor efficacy of TCR-modified T cells with rimiducid-driven iMC activation” value in series [2] (summary, in vitro and in vivo) is on record as “improved anti-tumor efficacy”. In series [3], the “activation of the iRmC9 switch” value is recorded as “can activate”.
As for `CC[C@H](C(=O)N1CCCC[C@H]1C(=O)O[C@H](CCc1ccc(OC)c(OC)c1)c1cccc(OCC(=O)NCC(CNC(=O)COc2cccc([C@@H](CCc3ccc(OC)c(OC)c3)OC(=O)[C@@H]3CCCCN3C(=O)[C@@H](CC)c3cc(OC)c(OC)c(OC)c3)c2)CN(C)C)c1)c1cc(OC)c(OC)c(OC)c1` [AP20187], in series [4] (F-Casp9M.I.GFPhigh, day 7), the “concentration sufficient to obtain the maximal deletion effect” value was 1 nM. In addition, the “deletion of transduced cells” value in series [4] (GFPhigh-selected cells, 10 nM CID) is recorded as 99.1%. For the same compound, in series [4] (setting [6]), the “apoptotic (annexin-V+/7-AAD−) phenotype” value was found to be 64% and the “necrotic (annexinV+/7-AAD+) phenotype” value is reported as 30%. Also, the “reduction in mean fluorescence intensity of GFP in surviving CTLs” value in series [4] (after CID) came out at 70%. For the same compound, in series [4] (setting [7]), the “apoptotic phenotype (annexin V+, 7-AAD−)” value is listed as 64% and the “necrotic phenotype (annexin V+, 7-AAD+)” value was determined as 32%. In series [4] (single 10-nM dose of CID, unselected CTLs, 5 donors), the “GFP+ cells eliminated” value was determined as 91.3%. The “IL-12 in the supernatant after CID” value in series [5] was under 7.8 pg/mL.
